Values belong to the molecule of their own block, whether it stands above or below them. The source made the active and inactive calls. The calls are words filed in the database; no cut-off is given here.
Assays:
[1] = Apparent permeability across basolateral to apical side in human Caco2 cells after 2 hrs by LC-MS/MS method; assay type: ADME, cell-based; conditions: caco-2, 2 h
Cathepsin S = Cathepsin S (Homo sapiens, UniProt P25774); assay: Inhibition of cathepsin-S (unknown origin)
[2] = Apparent permeability across apical to basolateral side in human Caco2 cells after 2 hrs by LC-MS/MS method; assay type: ADME, cell-based; conditions: caco-2, 2 h
Legumain [3] = molecular target: T1, Legumain (Homo sapiens, UniProt Q99538); assay: Competitive inhibition of AEP (unknown origin) using varying levels of Z-AAN-AMC substrate after 10 mins by Lineweaver-Burk plot analysis
T1 sequence (Q99538 whole entry): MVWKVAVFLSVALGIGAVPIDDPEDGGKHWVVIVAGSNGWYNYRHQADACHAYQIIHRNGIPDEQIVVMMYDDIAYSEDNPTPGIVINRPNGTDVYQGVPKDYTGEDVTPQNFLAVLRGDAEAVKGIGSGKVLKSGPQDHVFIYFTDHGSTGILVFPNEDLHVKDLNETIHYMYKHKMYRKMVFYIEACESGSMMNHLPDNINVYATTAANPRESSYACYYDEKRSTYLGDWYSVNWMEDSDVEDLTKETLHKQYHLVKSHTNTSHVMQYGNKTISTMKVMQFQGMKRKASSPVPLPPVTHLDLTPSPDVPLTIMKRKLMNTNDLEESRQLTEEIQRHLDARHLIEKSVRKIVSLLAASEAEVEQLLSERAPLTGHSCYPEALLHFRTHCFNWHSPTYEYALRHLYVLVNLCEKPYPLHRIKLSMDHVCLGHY

[4] = Inhibition of cathepsin-L (unknown origin); design: species or system Homo sapiens
Legumain (Mus musculus) = molecular target: T2, Legumain (Mus musculus) (UniProt O89017); assay: Inhibition of AEP in mouse kidney by HTS assay
T2 sequence (whole entry): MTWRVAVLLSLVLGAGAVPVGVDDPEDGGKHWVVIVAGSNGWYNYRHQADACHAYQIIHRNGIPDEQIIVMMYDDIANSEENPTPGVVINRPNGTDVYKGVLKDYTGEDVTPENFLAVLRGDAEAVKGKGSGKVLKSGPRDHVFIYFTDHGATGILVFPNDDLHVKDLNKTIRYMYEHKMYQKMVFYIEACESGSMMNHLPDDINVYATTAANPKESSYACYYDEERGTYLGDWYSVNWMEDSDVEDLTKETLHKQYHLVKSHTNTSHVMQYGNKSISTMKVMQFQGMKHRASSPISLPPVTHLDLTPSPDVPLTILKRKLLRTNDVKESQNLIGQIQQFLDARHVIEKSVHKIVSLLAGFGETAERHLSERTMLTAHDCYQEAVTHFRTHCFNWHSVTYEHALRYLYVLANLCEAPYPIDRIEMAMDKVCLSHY

Legumain (Homo sapiens) = molecular target: T3, Legumain (Homo sapiens) (UniProt Q99538); assay: Inhibition of AEP (unknown origin) assessed as residual activity at 1 uM using Cbz-Ala-Ala-Asn-AMC as substrate after 15 mins by fluorescence assay relative to control
T3 sequence (whole entry): T1 sequence (Q99538 whole entry)

Mus musculus [5] = assay: Toxicity in nude mouse xenografted with human MDA-MB-231 cells assessed as abnormality in liver at 3 to 10 mg/kg, po via gavage for 42 consecutive days by hematoxylin and eosin staining based microscopic method; assay type: organism-based; conditions: in vivo
MDA-MB-231 [6] = assay: Anti-migratory activity against human MDA-MB-231 cells up to 2 uM by transwell assay relative to control; assay type: functional
MDA-MB-231 [7] = assay: Anti-invasive activity against human MDA-MB-231 cells harboring AEP siRNA up to 2 uM by crystal violet staining based microscopic method; assay type: functional, cell-based
MDA-MB-231 [8] = assay: Cytotoxicity against human MDA-MB-231 cells assessed as reduction in cell viability up to 10 uM by MTT assay; assay type: cell-based
MDA-MB-435 [9] = assay: Anti-invasive activity against human MDA-MB-435 cells at 2 uM by crystal violet staining based microscopic method relative to control; assay type: functional
MDA-MB-435 [10] = assay: Anti-invasive activity against human MDA-MB-435 cells harboring AEP siRNA up to 2 uM by crystal violet staining based microscopic method; assay type: functional, cell-based
Caspase-8 = Caspase-8 (Homo sapiens, UniProt Q14790); assay: Inhibition of caspase-8 (unknown origin)
Sequence of Caspase-8 (Q14790 217-374 limits assumed): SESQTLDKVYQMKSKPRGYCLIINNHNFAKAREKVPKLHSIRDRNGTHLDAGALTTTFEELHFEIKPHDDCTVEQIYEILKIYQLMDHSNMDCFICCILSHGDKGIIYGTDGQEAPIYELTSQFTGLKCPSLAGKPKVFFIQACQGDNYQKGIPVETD
Sequence of Caspase-8 (Q14790 385-479 limits assumed): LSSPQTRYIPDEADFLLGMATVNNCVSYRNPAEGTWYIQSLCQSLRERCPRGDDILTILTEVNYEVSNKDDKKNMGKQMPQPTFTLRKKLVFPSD

MDA-MB-435 [11] = assay: Anti-migratory activity against human MDA-MB-435 cells up to 2 uM by transwell assay relative to control; assay type: functional
Caspase-3 = molecular target: T4, Caspase-3 (Homo sapiens, UniProt P42574); assay: Inhibition of caspase-3 (unknown origin)
T4 sequence (P42574 whole entry): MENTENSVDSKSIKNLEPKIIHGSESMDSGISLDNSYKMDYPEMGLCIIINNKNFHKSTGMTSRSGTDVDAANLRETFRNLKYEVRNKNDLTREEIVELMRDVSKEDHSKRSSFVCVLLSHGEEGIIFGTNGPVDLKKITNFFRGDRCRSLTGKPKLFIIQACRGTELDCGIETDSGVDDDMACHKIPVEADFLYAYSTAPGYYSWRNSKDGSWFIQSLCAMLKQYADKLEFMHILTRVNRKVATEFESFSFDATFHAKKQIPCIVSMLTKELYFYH

Mus musculus [12] = assay: Toxicity in nude mouse xenografted with human MDA-MB-231 cells assessed as abnormality in bone marrow at 3 to 10 mg/kg, po via gavage for 42 consecutive days by hematoxylin and eosin staining based microscopic method; assay type: organism-based; conditions: in vivo
MDA-MB-435 [13] = assay: Cytotoxicity against human MDA-MB-435 cells assessed as reduction in cell viability up to 2 uM by MTT assay; assay type: cell-based
MDA-MB-231 [14] = assay: Antitumor activity against human MDA-MB-231 cells xenografted in nude mouse assessed as reduction in mammary tumor weight at 3 to 10 mg/kg, po via gavage for 42 consecutive days; assay type: functional, organism-based
MDA-MB-231 [15] = assay: Antitumor activity against human MDA-MB-231 cells xenografted in nude mouse assessed as metastatic nodules on lungs at 3 mg/kg, po via gavage for 42 consecutive days by hematoxylin and eosin staining based microscopic method relative to control; assay type: functional
Mus musculus [16] = assay: Toxicity in nude mouse xenografted with human MDA-MB-231 cells assessed as increase in spleen size at 3 to 10 mg/kg, po via gavage for 42 consecutive days; assay type: organism-based; conditions: in vivo
MDA-MB-231 [17] = assay: Anti-invasive activity against human MDA-MB-231 cells at 2 uM by crystal violet staining based microscopic method relative to control; assay type: functional
MDA-MB-231 [18] = assay: Antitumor activity against human MDA-MB-231 cells xenografted in nude mouse assessed as metastatic nodules on lungs at 10 mg/kg, po via gavage for 42 consecutive days by hematoxylin and eosin staining based microscopic method relative to control; assay type: functional
MDA-MB-231 [19] = assay: Inhibition of MMP2 cleavage in human MDA-MB-231 cells harboring AEP siRNA up to 10 uM by gelatin zymography assay; assay type: functional, cell-based
Mus musculus [20] = assay: Toxicity in nude mouse xenografted with human MDA-MB-231 cells assessed as body weight loss at 3 to 10 mg/kg, po via gavage for 42 consecutive days; assay type: organism-based; conditions: in vivo
MDA-MB-231 [21] = assay: Cytotoxicity against human MDA-MB-231 cells assessed as reduction in cell viability up to 2 uM by MTT assay; assay type: cell-based
MDA-MB-231 [22] = assay: Anti-invasive activity against human MDA-MB-231 cells by crystal violet staining based microscopic method; assay type: functional, cell-based
Mus musculus [23] = assay: Toxicity in nude mouse xenografted with human MDA-MB-231 cells assessed as abnormality in kidney at 3 to 10 mg/kg, po via gavage for 42 consecutive days by hematoxylin and eosin staining based microscopic method; assay type: organism-based; conditions: in vivo
MDA-MB-435 [24] = assay: Anti-invasive activity against human MDA-MB-435 cells by crystal violet staining based microscopic method; assay type: functional, cell-based
Mus musculus [25] = assay: Reduction in ratio of cleaved MMP2 to full-length MMP2 in mammary tumor of nude mouse xenografted with human MDA-MB-231 cells at 3 to 10 mg/kg, po via gavage for 42 consecutive days by gelatin zymography assay; assay type: functional, organism-based
Mus musculus [26] = assay: Toxicity in nude mouse xenografted with human MDA-MB-231 cells assessed as effect on blood count at 3 to 10 mg/kg, po via gavage for 42 consecutive days by hematoxylin and eosin staining based microscopic method; assay type: organism-based; conditions: in vivo
Homo sapiens = species: Homo sapiens; assay: Selectivity ratio of IC50 for cathepsin-L (unknown origin) to IC50 for AEP (unknown origin)
Legumain [27] = molecular target: T1, Legumain; assay: Inhibition of AEP (unknown origin) using Cbz-Ala-Ala-Asn-AMC as substrate after 15 mins by fluorescence assay

Sequence of Cathepsin S (P25774 whole entry): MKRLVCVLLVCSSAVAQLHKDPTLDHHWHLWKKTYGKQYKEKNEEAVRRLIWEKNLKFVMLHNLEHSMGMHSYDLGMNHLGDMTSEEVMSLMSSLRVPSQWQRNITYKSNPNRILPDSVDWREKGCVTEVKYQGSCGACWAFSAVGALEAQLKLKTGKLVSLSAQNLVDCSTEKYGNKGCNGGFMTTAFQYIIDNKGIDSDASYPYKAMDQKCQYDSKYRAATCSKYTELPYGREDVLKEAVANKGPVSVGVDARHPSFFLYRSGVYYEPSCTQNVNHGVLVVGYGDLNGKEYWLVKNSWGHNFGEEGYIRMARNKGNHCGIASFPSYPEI

Structure (SMILES): Cn1c(=O)n(Cc2ccccc2)c(=O)c2c1nc(S)n2Cc1ccccc1
Activity (Legumain (Homo sapiens)): 17.2%

Structure (SMILES): CC[C@H](C)n1c(S)nc2c1c(=O)[nH]c(=O)n2C
Activity (Legumain (Homo sapiens)): 14.1%

Structure (SMILES): CCn1c(=O)c2c(nc(S)n2C)n(C)c1=O
Activity (Mus musculus [5]): Non-Toxic
inhibition (INH) (MDA-MB-231 [6]): 25%
Activity (MDA-MB-231 [7]): inactive
Activity (MDA-MB-231 [8]): Non-Toxic
inhibition at 2 µM (MDA-MB-435 [9]): 75%
Activity (MDA-MB-435 [10]): inactive
IC50 (Caspase-8): > 200 µM
inhibition (INH) (MDA-MB-435 [11]): 40%
IC50 (Caspase-3): > 200 µM
Activity (Mus musculus [12]): Non-Toxic
Activity (MDA-MB-435 [13]): Non-Toxic
Activity (MDA-MB-231 [14]): Active
Activity (MDA-MB-231 [15]): 33%
Activity (Mus musculus [16]): Toxic
inhibition at 2 µM (MDA-MB-231 [17]): 75%
Activity (MDA-MB-231 [18]): 17%
inhibition (MDA-MB-231 [19]): inactive
Activity (Mus musculus [20]): Non-Toxic
Activity (MDA-MB-231 [21]): Non-Toxic
Activity (MDA-MB-231 [22]): Dose-dependent effect
IC50 (Cathepsin S): > 200 µM
Activity (Mus musculus [23]): Non-Toxic
IC50 [4]: 162 µM
Activity (MDA-MB-435 [24]): Dose-dependent effect
Activity (Mus musculus [25]): Active
Activity (Mus musculus [26]): Non-Toxic

Structure (SMILES): Cn1c(S)nc2c1c(=O)n(Cc1ccccc1)c(=O)n2C
IC50 (Caspase-8): > 200 µM
IC50 (Caspase-3): > 200 µM
IC50 (Cathepsin S): > 200 µM
IC50 [4]: > 200 µM

Structure (SMILES): CC(C)n1c(S)nc2c1c(=O)n(C)c(=O)n2C
Activity (Legumain (Homo sapiens)): 17.8%

Structure (SMILES): C=CCn1c(S)nc2c1c(=O)n(C)c(=O)n2C
Activity (Legumain (Homo sapiens)): 18.1%

Structure (SMILES): Cc1ncc2c(=O)[nH]c(=O)n(C)c2n1
Activity (Legumain (Homo sapiens)): 91.9%

Structure (SMILES): Cn1c(=O)c2c(nc(S(=O)(=O)c3ccccc3)n2C)n(C)c1=O
Activity (Legumain (Homo sapiens)): 98.9%

Structure (SMILES): Cn1c(=O)c2c(nc(S)n2C)n(C)c1=O
Activity (Legumain (Homo sapiens)): 16.1%
IC50 (Caspase-8): > 200 µM
IC50 (Caspase-3): 185 µM
Ratio IC50 (Homo sapiens): 500
IC50 (Cathepsin S): > 200 µM
IC50 [4]: 80.5 µM
IC50 (Legumain [27]): 0.18 µM

Structure (SMILES): Cn1c(=O)c2c(nc(S(C)(=O)=O)n2C)n(C)c1=O
Activity (Legumain (Homo sapiens)): 98.3%

Structure (SMILES): CSc1nc2c(c(=O)n(C)c(=O)n2C)n1C
Activity (Legumain (Homo sapiens)): 70.5%

Structure (SMILES): Cn1ccnc1Sc1nc2c(c(=O)n(C)c(=O)n2C)n1C
Activity (Legumain (Homo sapiens)): 100%

Structure (SMILES): Cn1c(=O)c2c(ncn2C)n(C)c1=O
Activity (Legumain (Homo sapiens)): 74.3%

Structure (SMILES): CCn1c(S)nc2c1c(=O)n(C)c(=O)n2C
Activity (Legumain (Homo sapiens)): 15.9%

Results, then the molecule that gave them:

Papp [1]: 20.3 ×10⁻⁶ cm/s
IC50 (Cathepsin S): > 200 µM
Papp [2]: 1.1 ×10⁻⁶ cm/s
Ki (Legumain [3]): 0.105 µM
IC50 [4]: > 200 µM
inhibition (Legumain (Mus musculus)): Active
Structure (SMILES): Cn1c(=O)[nH]c(=O)c2c1nc(S)n2CC(O)COc1ccc(Cl)cc1 (stereo unspecified)

Activity (Legumain (Homo sapiens)): 11.5%
Structure (SMILES): Cn1c(S)nc2c1c(=O)[nH]c(=O)n2C

Activity (Legumain (Homo sapiens)): 17.2%
Structure (SMILES): Cc1ccc(Cn2c(S)nc3c2c(=O)n(C)c(=O)n3C)cc1

Activity (Legumain (Homo sapiens)): 13.8%
Structure (SMILES): COCCn1c(S)nc2c1c(=O)[nH]c(=O)n2C

Activity (Legumain (Homo sapiens)): 14.8%
Structure (SMILES): CCCCn1c(S)nc2c1c(=O)[nH]c(=O)n2C

Activity (Legumain (Homo sapiens)): 13.8%
Structure (SMILES): CCn1c(S)nc2c1c(=O)[nH]c(=O)n2C

Activity (Legumain (Homo sapiens)): 85.4%
Structure (SMILES): Cn1c(=O)[nH]c(=O)c2c1nc(S)n2C[C@H](O)CO

Activity (Legumain (Homo sapiens)): 15.7%
Structure (SMILES): CC(C)Cn1c(S)nc2c1c(=O)[nH]c(=O)n2C

Activity (Legumain (Homo sapiens)): 14.9%
Structure (SMILES): CCCn1c(S)nc2c1c(=O)[nH]c(=O)n2C

Activity (Legumain (Homo sapiens)): 69.4%
Structure (SMILES): CC(=O)Cn1c(S)nc2c1c(=O)[nH]c(=O)n2C

Activity (Legumain (Homo sapiens)): 18.5%
Structure (SMILES): COc1ccc(OC[C@@H](O)Cn2c(S)nc3c2c(=O)[nH]c(=O)n3C)cc1

Activity (Legumain (Homo sapiens)): 34.6%
Structure (SMILES): Cn1c(=O)[nH]c(=O)c2c1nc(S)n2C[C@H](O)COc1ccccc1

Activity (Legumain (Homo sapiens)): 12.3%
Structure (SMILES): Cc1ccc(Cn2c(S)nc3c2c(=O)[nH]c(=O)n3C)cc1

From ChEMBL document CHEMBL4017504, “Blockade of Asparagine Endopeptidase Inhibits Cancer Metastasis” (J Med Chem, 2017)
